Laboratory results as given in paper PMC4289246, “Dose-dependent effects of lesogaberan on reflux measures in patients with refractory gastroesophageal reflux disease: a randomized, placebo-controlled study” (BMC Gastroenterology, 2014).
Like-named read-outs stand apart in the source and are kept apart here.

Columns and labels:
[1] = Plasma pharmacokinetics of lesogaberan during 24-h dosing; format: in vivo, human; conditions: for AUC(0-t) / Cmax / Tmax: human, oral, plasma; for AUC(0-t): modified-release capsules, read-out: AUC (0–24 h), geometric mean
Description: Blood samples were taken 1 h before the first administration of each dose, and at regular intervals during the 24-h period after the first administration of each dose, to assess the concentration of lesogaberan in plasma over time. […]

[2] = tested on: patients with GERD who had a partial response to PPI treatment; assay: GERD symptoms recorded by data logger and diary card during 24-h measurement; format: in vivo, human
Description: Impedance–pH readings were analysed by one investigator (JP) using dedicated software (BioVIEW Analysis®, version 5.5.4; Sandhill Scientific Inc.) and were then checked manually. This was performed in a blinded manner and the results were used to determine the number of reflux episodes, defined as a period when impedance decreased to less than 50% of baseline (liquid episode) or increased to more than 150% of baseline (gas episode), propagating […] from the most distal channel. Acid, weakly acid and non-acid reflux episodes were defined as episodes lasting longer than 5 s with a pH of < 4, 4.0–6.5 and > 6.5, respectively. The decision to use a cautious cut-off pH of 6.5 was taken in order to ensure that no measurements near to a pH of 7 would be erroneously categorized as weakly acidic. These definitions have previously been employed for studies of this type. During the 24-h period of ambulatory impedance–pH measurement, patients used a data logger and a diary card to record their meal intake and periods in supine position, as well as any GERD symptoms.

[3] = tested on: patients with GERD who have a partial response to PPI therapy; design: method as in PMID 20451523; conditions: 65 mg twice daily, partial responders to PPI therapy; cited from earlier work
[4] = tested on: patients with a partial response to PPI treatment; design: method as in PMID 21402616; conditions: 65 mg twice daily add-on to PPIs, phase 2a; placebo 8%; cited from earlier work
[5] = tested on: partial responders to PPI treatment; design: method as in earlier work; conditions: cited from earlier work
[6] = design: method as in PMID 21410297; conditions: approximately; cited from earlier work

NC[C@@H](F)C[PH](=O)O [lesogaberan, (R)-(3-amino-2-fluoropropyl) phosphinic acid]
fraction of peak concentration (Cmax) remaining at the end of the wash-out period ([1]; 7–28-day washout, estimated from half-life): ≤ 0.01% | AUC(0-t) ([1]; 30 mg twice in 24 h, patients): 5.25 µM·h | AUC(0-t) ([1]; 90 mg twice in 24 h, patients): 17.3 µM·h | AUC(0-t) ([1]; 120 mg twice in 24 h, patients): 22.2 µM·h | AUC(0-t) ([1]; 240 mg twice in 24 h, patients): 46.9 µM·h | Cmax ([1]; 30 mg, evening dose, patients, read-out: C max evening, geometric mean): 420 nM | Tmax ([1]; 30 mg, evening dose, patients, read-out: t max evening, geometric mean): 2.2 h | Cmax ([1]; 30 mg, morning dose, patients, read-out: C max morning, geometric mean): 350 nM | Tmax ([1]; 30 mg, morning dose, patients, read-out: t max morning, geometric mean): 1.7 h | Cmax ([1]; 90 mg, evening dose, patients, read-out: C max evening, geometric mean): 1680 nM | Tmax ([1]; 90 mg, evening dose, patients, read-out: t max evening, geometric mean): 1.9 h | Cmax ([1]; 90 mg, morning dose, patients, read-out: C max morning, geometric mean): 1300 nM | Tmax ([1]; 90 mg, morning dose, patients, read-out: t max morning, geometric mean): 1.7 h | Cmax ([1]; 120 mg, evening dose, patients, read-out: C max evening, geometric mean): 2210 nM | Tmax ([1]; 120 mg, evening dose, patients, read-out: t max evening, geometric mean): 1.9 h | Cmax ([1]; 120 mg, morning dose, patients, read-out: C max morning, geometric mean): 1480 nM | Tmax ([1]; 120 mg, morning dose, patients, read-out: t max morning, geometric mean): 1.9 h | Tmax ([1]; 240 mg, all four doses (30, 90, 120, 240 mg), morning and evening, read-out: geometric mean tmax): 1.7 to 2.6 h | Cmax ([1]; 240 mg, evening dose, patients, read-out: C max evening, geometric mean): 4180 nM | Tmax ([1]; 240 mg, evening dose, patients, read-out: t max evening, geometric mean): 2.6 h | Cmax ([1]; 240 mg, morning dose, patients, read-out: C max morning, geometric mean): 3310 nM | Tmax ([1]; 240 mg, morning dose, patients, read-out: t max morning, geometric mean): 1.7 h | median number of symptoms reported during dosing ([2]; 30 mg twice in 24 h): 1.0 symptom | median number of symptoms reported during dosing ([2]; 90 mg twice in 24 h): 1.0 symptom | median number of symptoms reported during dosing ([2]; 120 mg twice in 24 h): 0 symptoms | median number of symptoms reported during dosing ([2]; 240 mg twice in 24 h): 0.5 symptoms | reduction in the mean number of total reflux episodes relative to placebo [3]: approximately 35% | proportion of responders (max one 24-h period with heartburn and/or regurgitation of not more than mild intensity during last 7 treatment days) [4]: 16% | effect on GERD symptoms ([5]; 240 mg, phase 2b, partial responders to PPI treatment): does not have a clinically important effect on GERD symptoms | patients with reversible elevated alanine transaminase levels >5 times the upper limit of normal ([5]; phase 2b study): 6 patients | pharmacological half-life [6]: 11–13 h
